In ChEMBL document CHEMBL1201862, “PubChem BioAssay data set” (2004):
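1) Cells in 96-well plates. 2) Compound, 48 h, 5 concentrations. 3) Linear interpolation between surrounding doses. 4) Unreached endpoint = highest concentration. The concentration for 50% growth inhibition is given as GI50.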 The source made the active and inactive calls. Cut-off read from the data, not from the text of the source: active = GI50 up to about 1.1 µM and inactive = higher.

Experiments:
Assay in all cases: inhibition of tumour cell growth, NCI panel, 48 h
DU-145 = tested on: DU-145
MDA-MB-231 = tested on: MDA-MB-231
MDA-N = tested on: MDA-N
T47D = tested on: T47D
LXFL 529 = tested on: LXFL 529
RXF 631 = tested on: RXF 631
MDA-MB-435 = tested on: MDA-MB-435
PC-3 = tested on: PC-3
786-0 = tested on: 786-0

Measured: GI50

C/C(=N\NC(=O)c1ccncc1)c1cccc(C(F)(F)F)c1
inactive: DU-145 > 10 µM | MDA-MB-231 > 10 µM | MDA-N > 10 µM | T47D > 10 µM

Nc1nncc2c1ccn2C1OC(CO)C(O)C1O (stereo unspecified)
inactive: LXFL 529 > 100 µM

N=C(N)c1csc([C@@H]2O[C@H](CO)[C@@H](O)[C@H]2O)n1
inactive: LXFL 529 > 100 µM | RXF 631 > 100 µM

O=S(=O)(/N=C(\NO)Nc1ccc(Cl)cc1)c1ccc(-c2ccccn2)s1
inactive: DU-145 > 100 µM | MDA-MB-231 49.7 µM | MDA-MB-435 27.5 µM | MDA-N 24.2 µM | PC-3 38.8 µM | T47D 62.4 µM

C=CNC(=S)n1nc(-c2ccccc2NC(=O)C(F)(F)F)c(=O)n(C(=S)NC=C)c1=S
inactive: LXFL 529 19.5 µM

CCOC(=O)NC(=O)c1cn(C2CCCCC2)c(=O)n(C)c1=O
inactive: 786-0 > 100 µM | LXFL 529 > 100 µM | RXF 631 > 100 µM

CCOC(=O)/C=C(\C)c1ccc(C)cc1C
inactive: LXFL 529 14.6 µM | RXF 631 > 100 µM

O=C1CC2(CCC(O)(c3ccccc3)C(C(=O)c3ccccc3)C2)C(=O)c2ccccc2N1 (stereo unspecified)
inactive: DU-145 > 100 µM | MDA-MB-231 > 100 µM | MDA-MB-435 > 100 µM | MDA-N > 100 µM | PC-3 > 100 µM | T47D > 100 µM

COc1ccc(C2c3cc4c(cc3OC(Nc3ccccc3)C2C)OCO4)cc1 (stereo unspecified)
inactive: DU-145 57.9 µM | MDA-MB-231 > 100 µM | MDA-MB-435 67.8 µM | MDA-N > 100 µM | PC-3 28.3 µM | T47D 36.1 µM
